# Measurements reported in patent US11352374B2 (University of Alaska Anchorage, priority 2015, dated 2022).
# Where “and” joins values, the source holds several entries; their conditions need not be identical. Equal entries are not always repeated. Where two headings read alike, the source gives them in different places.
# Legend:
# physchem = details: for CO release rate relative to CORCB-1: acid forms; for auto-decomposition of salts (in words): salts in D2O
# Method: The kinetics of compound decomposition was followed by observing the ratio of the amount of free amine group to the original compound using ^1H NMR. For instance, Hexamethylenetetramine carboxyborane (CORCB-1) in D2O at the concentration of 12 mg/mL was incubated at 37° C. in the standard NMR tube. ^1H NMR spectra were obtained at different time points to study the kinetics of product formation. […] The ratio of integrated peaks were used for determining the percent of each species present and plotted as a function of time to show the kinetics of auto-decomposition.
# ^1H, ^11B, and ^13C NMR spectra were recorded at different time points to study the kinetics as well as to observe transformation of CORCB-1 into the products.
# In order to determine whether CO is produced in physiological condition, CORCB acid forms were dissolved in aqueous solution at neutral pH. The solution was then subjected to incubation at 37° C. for extended period of time. For studies using NMR, CORCBs were dissolved in D2O. The kinetics of CORCB molecules breaking down to produce CO is determined by taking ^1H NMR spectra at various time points (FIG. 3).
# CORCB sodium and ammonium salts were also tested for decomposition by using ^1H NMR spectroscopy. Samples were set up as in Example 1 and rate of decomposition measured (FIG. 4).
# [1] = CO released on auto-decomposition in water at 37° C., head space measured with CO meter; type: physicochemical; details: for % CO liberated at 24 hours by CO meter / CO release rate at 24 hours, CO meter, Autodecomposition / CO release (in words), CO meter: 37° C., 24 hours; for Rate of % CO released by CORCB sodium salts, Autodecomposition / Rate of % CO released by CORCBs, Autodecomposition: per 24 hour
# Method: (§1) A test to confirm that CO is one of the decomposition products from CORCBs is done by utilizing commercially available CO meter. Four mole of the compounds at the concentrations of 6-12 mg/mL in aqueous solution was incubated at 37° C. in a sealed vessel with 50 mL gas space. CO meter was used to read the concentration of liberated CO gas from the solution. Measurement by CO meter in ppm, after converting to the micromole amount, was used for calculating the percent CO released based on the original amount of compound.
# CO liberated from the molecules and coming out to the head space are detected and quantified by using CO meter.
# [2] = CO released in the presence of H2O2, CO meter; type: physicochemical; details: for CO released with 3 equivalents H2O2: 3 equivalents H2O2, 12 hours at 37° C. (FIG. 9); for Rate of % CO released by CORCBs, With H2O2: H2O2 equivalents not given
# Method: as §1
# (§2) The two tested are the common ROS formed naturally in the cells—a non-radical hydrogen peroxide (H2O2) and Fenton reagent which is a more reactive hydroxyl radical (.OH) formed from Fe^2+ and H2O2. Four mole of CORCB compounds were mixed in an aqueous solution with ROS and incubated in a sealed vessel. At respective times, the head space air was injected into the meter to read the amount of CO produced. For analysis by NMR spectroscopy, the reaction mixture was prepared in NMR tube in D2O solvent and incubated for the amount of time indicated.
# [3] = CO released in the presence of Fenton reagent (hydroxyl radical), CO meter; type: physicochemical; details: per 5 minutes
# Method: as §1
# as §2, with “All amine carboxyboranes express a faster CO release rate when incubated with the reactive oxygen species. The” for “The”, “indicated. While some CORCBs have increased amount of CO produced when treated with 3 times equivalents of H2O2, CORCB-1 produces similar or less amount of CO. In every sample, either acid or salt form, the hydroxyl radical extracts the amount of CO to a much higher magnitude within a very short amount of time.” for “indicated.”
# [4] = Decomposition (amine release) in the presence of H2O2 monitored by 1H NMR; type: physicochemical; details: for Decomposition rate at 24 hours, 1H NMR, With 1.5x H2O2: 1.5 equivalents H2O2, 37° C.
# Method: as §2
# The reaction with H2O2 is slow-acting, therefore, NMR spectroscopy can be used for monitoring the rate.
# RAW264.7 cells = test: Cytotoxicity / cell viability, Cell Titer Blue assay
# Method: To test the anti-inflammatory effect of CORCBs, mouse macrophage cells (RAW264.7) were used. 2×10^4 cells per well was seeded in 96-well plate with different concentrations of CORCBs. Cells were incubated in DMEM with 10% FBS at 37° C. and 5% CO2 for 24 hours. LPS (100 ng/mL) was then added and incubated for 4 additional hours. The media containing secreted inflammatory cytokines were collected and these cells were subjected to cell viability test to check their viability.
# Cytotoxicity of CORCBs was tested with RAW264.7 cells using Cell Titer Blue assay. In brief, cells were seeded at the density of 2×10^4 cells per well in 96-well plate with different concentrations of CORCBs. Cells were incubated in DMEM with 10% FBS at 37° C. and 5% CO2 for 24 hours. Cell Titer Blue reagent was added into the wells and incubated for 4 more hours in the normal cell growth conditions. The fluorescence signal of the converted reagent resulted from the viable cells was measured.
# [5] = Solubility in water / D2O; details: water or D2O
# [6] = system: fibroblast tumor cells (Hs 895.T) and normal fibroblast cells (Hs 895.Sk); details: human, 48 h, 1 mM
# Method: Cells were seeded at the density of 3×10^3 cells per well in 96-well plate with different concentrations of CORCBs in DMEM media without FBS, and incubated at 37° C. with 5% CO2 for 2 days.
# [7] = system: normal human skin fibroblast cells (Hs 895.Sk)
# Method: This was tested by using a chemotherapy drug, imatinib, in normal human skin fibroblast cells (Hs 895.Sk). The cultures were treated with 20 μM and 40 μM concentration of imatinib as controls to see their toxicity. Samples with mixtures of CORCB-1 and imatinib were also incubated and cell viability was determined on 2, 4, and 6 days. Media was exchanged every 2 days with fresh reagents.
# [8] = 24 hours, 1.5 equivalents H2O2, 37° C.
compound,measurement,setting,value
O=C([O-])[BH2-][N+]12CN3CN(CN(C3)C1)C2.[Na+] [Na-CORCB-1],% decomposed at 24 hours by 1H NMR,physchem; 37° C.,33.1%
same,"Decomposition rate at 24 hours, 1H NMR, Autodecomposition",physchem; 37° C.,33.20%
same,% CO liberated at 24 hours by CO meter,[1],33%
same,"CO release rate at 24 hours, CO meter, Autodecomposition",[1],33.10%
same,"Rate of % CO released by CORCB sodium salts, Autodecomposition",[1],33.12 ± 0.33%
same,"Rate of % CO released by CORCB sodium salts, With H2O2",[2],11.99 ± 0.19%
same,"Rate of % CO released by CORCB sodium salts, With Fenton Reagent",[3],41.61 ± 0.57%
N.O=C(O)[BH2-][N+]12CN3CN(CN(C3)C1)C2 [NH4-CORCB-1],"Decomposition rate at 24 hours, 1H NMR, Autodecomposition",physchem; 37° C.,26.40%
same,"CO release rate at 24 hours, CO meter, Autodecomposition",[1],28.70%
"C[N+](C)(C)[BH2-]C(=O)O [CORCB-3, trimethylamine carboxyborane]",CO release rate relative to CORCB-1,"physchem; D2O, 37° C.",much slower CO release rates than CORCB-1
same,rate of auto-decomposition,physchem; as stated in Example 10,~3 % per day
same,"CO release (in words), CO meter",[1],negligible
same,"Rate of % CO released by CORCBs, Autodecomposition",[1],0.13 ± 0.01%
same,"Decomposition rate at 24 hours, 1H NMR, With 1.5x H2O2",[4],44.50%
same,CO released with 3 equivalents H2O2,[2],about 10%
same,"CO release rate at 24 hours, CO meter, With 1.5x H2O2",[2]; [8],2.70%
same,"Rate of % CO released by CORCBs, With H2O2",[2]; per 24 hour,18.73 ± 0.24%
same,"Rate of % CO released by CORCBs, With Fenton Reagent",[3],76.64 ± 1.33%
same,cytotoxicity / cell growth (in words),"RAW264.7 cells; 0.5-10 mM (up to 10 mM), 24 hours",not toxic at the levels tested
same,cell viability after the TNF-α assay (in words),RAW264.7 cells; same cells as TNF-α assay,all cells remain viable
N.O=C(O)[BH2-][n+]1ccccc1 [NH4-CORCB-2],"Decomposition rate at 24 hours, 1H NMR, Autodecomposition",physchem; 37° C.,0.03%
same,"CO release rate at 24 hours, CO meter, Autodecomposition",[1],not measurable
"CC(=O)Nc1ccc(OC(=O)B[N+]23CN4CN(CN(C4)C2)C3)cc1 [CORCB-1-TY, hexamethylenetetramine carboacetaminophenborane]",% decomposed at 24 hours by 1H NMR,physchem; 37° C.,11.3%
same,"Decomposition rate at 24 hours, 1H NMR, Autodecomposition",physchem; 37° C.,11.30%
same,time to decompose to completion,"physchem; D2O, 37° C.",12 days
same,% CO liberated at 24 hours by CO meter,[1],12.3%
same,"CO release rate at 24 hours, CO meter, Autodecomposition",[1],12.30%
"C[C@]12CC3CC([NH2+][BH2-]C(=O)O)(C1)C[C@@](C)(C3)C2 [CORCB-4, memantine carboxyborane]","Decomposition rate at 24 hours, 1H NMR, Autodecomposition",physchem; 37° C.,not soluble
same,"CO release rate at 24 hours, CO meter, Autodecomposition",[1],not soluble
same,solubility in water,[5],low solubility in water
CN1CCC[C@H]1c1ccc[n+](BC(=O)O)c1,% decomposed at 24 hours by 1H NMR,physchem; 37° C.,1.0%
same,"Decomposition rate at 24 hours, 1H NMR, Autodecomposition",physchem; 37° C.,1%
same,CO release rate relative to CORCB-1,"physchem; D2O, 37° C.",much slower CO release rates than CORCB-1
same,% CO liberated at 24 hours by CO meter,[1],0.86%
same,"CO release (in words), CO meter",[1],much slower rate than the others
same,"CO release rate at 24 hours, CO meter, Autodecomposition",[1],0.86%
same,"Decomposition rate at 24 hours, 1H NMR, With 1.5x H2O2",[4],35.90%
same,"CO release rate at 24 hours, CO meter, With 1.5x H2O2",[2],0.50%
"OO [H2O2, hydrogen peroxide, reference compound]",viability,"RAW264.7 cells; 1 mM, after 24 hours, untreated cells = 100%",44%
"C1N2CN3CN1CN(C2)C3 [HMTA, hexamethylenetetramine, reference compound]",cytotoxicity at 2 mM (in words),"RAW264.7 cells; 2 mM, 24 hours",most cells losing viability
C[N+](C)(C)[BH2-]C(=O)O [Na-CORCB-3],"Decomposition rate at 24 hours, 1H NMR, Autodecomposition",physchem; 37° C.,not measurable
same,auto-decomposition of salts (in words),physchem; 37° C.,insignificant amounts of decomposition
same,"CO release rate at 24 hours, CO meter, Autodecomposition",[1],not measurable
same,"Rate of % CO released by CORCB sodium salts, Autodecomposition",[1],0.14 ± 0.02%
same,"Rate of % CO released by CORCB sodium salts, With H2O2","[2]; sodium salts, per 24 hour",7.41 ± 0.16%
same,"Rate of % CO released by CORCB sodium salts, With Fenton Reagent",[3],33.46 ± 0.90%
"NC12CC3CC(CC(C3)C1)C2 [Amantadine, reference compound]",cells left (viability),[6],about 20%
Cc1ccc(NC(=O)c2ccc(CN3CCN(C)CC3)cc2)cc1Nc1nccc(-c2cccnc2)n1 [imatinib],cell viability with 20 μM imatinib (in words),"[7]; 20 μM, by 6 days",killed
same,cell viability with 40 μM imatinib (in words),"[7]; 40 μM, at 4 days",lose their viability
O=C([O-])[BH2-][n+]1ccccc1.[Na+] [Na-CORCB-2],"Decomposition rate at 24 hours, 1H NMR, Autodecomposition",physchem; 37° C.,0.46%
same,"CO release rate at 24 hours, CO meter, Autodecomposition",[1],0.36%
same,"Rate of % CO released by CORCB sodium salts, Autodecomposition",[1],0.36 ± 0.13%
same,"Rate of % CO released by CORCB sodium salts, With H2O2","[2]; sodium salts, per 24 hour",12.66 ± 0.21%
same,"Rate of % CO released by CORCB sodium salts, With Fenton Reagent",[3],43.46 ± 0.73%
O=C(O)B[n+]1ccccc1,"Decomposition rate at 24 hours, 1H NMR, Autodecomposition",physchem; 37° C.,0.40%
same,CO release rate relative to CORCB-1,"physchem; D2O, 37° C.",much slower CO release rates than CORCB-1
same,"CO release rate at 24 hours, CO meter, Autodecomposition",[1],3%
same,"Rate of % CO released by CORCBs, Autodecomposition",[1],2.99 ± 0.06%
same,"Decomposition rate at 24 hours, 1H NMR, With 1.5x H2O2",[4],37.50%
same,CO released with 3 equivalents H2O2,[2],about 10%
same,"CO release rate at 24 hours, CO meter, With 1.5x H2O2",[2]; [8],1.00%
same,"Rate of % CO released by CORCBs, With H2O2",[2]; per 24 hour,20.22 ± 0.35%
same,"Rate of % CO released by CORCBs, With Fenton Reagent",[3],72.64 ± 2.57%
"CC12CC3CC(C)(C1)CC([NH2+][BH2-]C(=O)[O-])(C3)C2.[Na+] [Na-CORCB-4, Memantinecarboxyborane sodium salt]","Decomposition rate at 24 hours, 1H NMR, Autodecomposition",physchem; 37° C.,not measurable
same,auto-decomposition of salts (in words),"physchem; 37° C., listed as Sodium salt of CORCB-4, sodium salt",insignificant amounts of decomposition
same,auto-decomposition of salts (in words),"physchem; 37° C., listed as sodium salt of CORCB-4, sodium salt",does not decompose in measurable amount
same,"CO release rate at 24 hours, CO meter, Autodecomposition",[1],0.06%
same,% decomposition / free amine released by 1H NMR with H2O2,"[4]; 1.5 equivalents H2O2, 24 hours, sodium salt",96.4% and ~100%
same,"Decomposition rate at 24 hours, 1H NMR, With 1.5x H2O2",[4],96.40%
same,% CO produced by CO meter with H2O2,"[2]; 1.5 equivalents H2O2, 24 hours",1.6%
same,"CO release rate at 24 hours, CO meter, With 1.5x H2O2",[2]; [8],1.60%
same,solubility in water,[5],soluble in water
CC12CC3CC(C)(C1)CC([NH2+][BH2-]C(=O)O)(C3)C2.N [NH4-CORCB-4],"Decomposition rate at 24 hours, 1H NMR, Autodecomposition",physchem; 37° C.,12.80%
same,decomposition in 12 days,"physchem; ammonium salt, 12 days, 37° C.",about 13%
same,"CO release rate at 24 hours, CO meter, Autodecomposition",[1],not soluble
same,solubility in water,[5],soluble in water
